Test results from PubChem BioAssay AID2060615 (Molecular Pharmacology Branch, DTP, NCI, 2025).

System: 496974-208-R-J2-PDC complex spheroids, growth % test/control
Assay: Anticancer human tumor 496974-208-R-J2-PDC patient-derived pancreatic carcinoma cell line growth inhibition [CLK]
Details: for IC50: curve of first compound; for viability, T/C: stronger effect = lower value
Summary of the method: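 Patient-derived tumor cells grown as complex spheroids with HUVEC endothelial cells and mesenchymal stem cells, treated with drug combinations. Concentrations descend in half-log steps from near clinical Cmax, or from 10 microM if Cmax unknown.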

[1] = second compound 0.0316 µM, first compound 0.0316 µM
[2] = second compound 0.0316 µM, first compound 0.1 µM
[3] = second compound 0.0316 µM, first compound 0.316 µM
[4] = second compound 0.0316 µM, first compound 1 µM
[5] = second compound 0.0316 µM, first compound 3.16 µM
[6] = second compound 0.0316 µM, first compound 10 µM
[7] = second compound 0.1 µM, first compound 0.0316 µM
[8] = second compound 0.1 µM, first compound 0.1 µM
[9] = second compound 0.1 µM, first compound 0.316 µM
[10] = second compound 0.1 µM, first compound 1 µM
[11] = second compound 0.1 µM, first compound 3.16 µM
[12] = second compound 0.1 µM, first compound 10 µM
[13] = second compound 0.316 µM, first compound 0.0316 µM
[14] = second compound 0.316 µM, first compound 0.1 µM
[15] = second compound 0.316 µM, first compound 0.316 µM
[16] = second compound 0.316 µM, first compound 1 µM
[17] = second compound 0.316 µM, first compound 3.16 µM
[18] = second compound 0.316 µM, first compound 10 µM
[19] = second compound 1 µM, first compound 0.0316 µM
[20] = second compound 1 µM, first compound 0.1 µM
[21] = second compound 1 µM, first compound 0.316 µM
[22] = second compound 1 µM, first compound 1 µM
[23] = second compound 1 µM, first compound 3.16 µM
[24] = second compound 1 µM, first compound 10 µM
[25] = second compound 3.16 µM, first compound 0.0316 µM
[26] = second compound 3.16 µM, first compound 0.1 µM
[27] = second compound 3.16 µM, first compound 0.316 µM
[28] = second compound 3.16 µM, first compound 1 µM
[29] = second compound 3.16 µM, first compound 3.16 µM
[30] = second compound 3.16 µM, first compound 10 µM
[31] = second compound 10 µM, first compound 0.0316 µM
[32] = second compound 10 µM, first compound 0.1 µM
[33] = second compound 10 µM, first compound 0.316 µM
[34] = second compound 10 µM, first compound 1 µM
[35] = second compound 10 µM, first compound 3.16 µM
[36] = second compound 10 µM, first compound 10 µM
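Also: spheroids exposed to the drugs for 7 days before readout.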
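For viability, T/C in this document: 100% = DMSO vehicle control wells.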

In the case of `CC(C)CC(NC(=O)C(Cc1ccccc1)NC(=O)c1cnccn1)B(O)O` (stereo unspecified) + CN1CCN(c2cc(C(=O)Nc3cc4cc(-c5cnn(C)c5)ccc4cn3)ccn2)CC1, the IC50 (second compound 0.0316 µM) is reported as 4.54 nM, the IC50 (second compound 0.1 µM) is reported as 3.84 nM and the IC50 (second compound 0.316 µM) is reported as less than 0.949 nM. It also gave an IC50 (second compound 1 µM) of less than 0.949 nM, an IC50 (second compound 3.16 µM) of less than 0.949 nM and an IC50 (second compound 10 µM) of less than 0.949 nM. It also gave a viability, T/C (second compound 0.0316 µM, first compound 0.000949 µM) of 104%, a viability, T/C (second compound 0.0316 µM, first compound 0.003 µM) of 77.2% and a viability, T/C (second compound 0.0316 µM, first compound 0.00949 µM) of 1.7%. It also gave a viability, T/C (second compound 0.0316 µM, first compound 0.03 µM) of 0.32%, a viability, T/C (second compound 0.0316 µM, first compound 0.0949 µM) of 0.24% and a viability, T/C (second compound 0.0316 µM, first compound 0.3 µM) of 2.04%. The viability, T/C (second compound 0.1 µM, first compound 0.000949 µM) was 85.5%, the viability, T/C (second compound 0.1 µM, first compound 0.003 µM) was 63.1% and the viability, T/C (second compound 0.1 µM, first compound 0.00949 µM) was 2%. For the same compound, the viability, T/C (second compound 0.1 µM, first compound 0.03 µM) was 0.33%, the viability, T/C (second compound 0.1 µM, first compound 0.0949 µM) was 0.27% and the viability, T/C (second compound 0.1 µM, first compound 0.3 µM) was 3.67%. The viability, T/C (second compound 0.316 µM, first compound 0.000949 µM) was 6.64%, the viability, T/C (second compound 0.316 µM, first compound 0.003 µM) was 5.3% and the viability, T/C (second compound 0.316 µM, first compound 0.00949 µM) was 0.71%. For the same compound, the viability, T/C (second compound 0.316 µM, first compound 0.03 µM) was 0.38%, the viability, T/C (second compound 0.316 µM, first compound 0.0949 µM) was 0.51% and the viability, T/C (second compound 0.316 µM, first compound 0.3 µM) was 2.72%. The viability, T/C (second compound 1 µM, first compound 0.000949 µM) was 0.49%, the viability, T/C (second compound 1 µM, first compound 0.003 µM) was 1.07% and the viability, T/C (second compound 1 µM, first compound 0.00949 µM) was 0.68%. For the same compound, the viability, T/C (second compound 1 µM, first compound 0.03 µM) was 0.63%, the viability, T/C (second compound 1 µM, first compound 0.0949 µM) was 2.26% and the viability, T/C (second compound 1 µM, first compound 0.3 µM) was 1.33%. It also gave a viability, T/C (second compound 3.16 µM, first compound 0.000949 µM) of 0.5%, a viability, T/C (second compound 3.16 µM, first compound 0.003 µM) of 2.35% and a viability, T/C (second compound 3.16 µM, first compound 0.00949 µM) of 0.66%. For the same compound, the viability, T/C (second compound 3.16 µM, first compound 0.03 µM) was 0.53%, the viability, T/C (second compound 3.16 µM, first compound 0.0949 µM) was 1.54% and the viability, T/C (second compound 3.16 µM, first compound 0.3 µM) was 2.08%. The viability, T/C (second compound 10 µM, first compound 0.000949 µM) was 0.27%, the viability, T/C (second compound 10 µM, first compound 0.003 µM) was 0.26% and the viability, T/C (second compound 10 µM, first compound 0.00949 µM) was 1.83%. For the same compound, the viability, T/C (second compound 10 µM, first compound 0.03 µM) was 0.24%, the viability, T/C (second compound 10 µM, first compound 0.0949 µM) was 0.3% and the viability, T/C (second compound 10 µM, first compound 0.3 µM) was 2.65%.

With `CC1COCCN1c1cc(C2(S(C)(=N)=O)CC2)nc(-c2ccnc3[nH]ccc23)n1` (stereo unspecified) + CN1CCN(c2cc(C(=O)Nc3cc4cc(-c5cnn(C)c5)ccc4cn3)ccn2)CC1 the IC50 (second compound 0.0316 µM) was 3820 nM, the IC50 (second compound 0.1 µM) was 1930 nM and the IC50 (second compound 0.316 µM) was less than 31.6 nM. The IC50 (second compound 1 µM) was less than 31.6 nM, the IC50 (second compound 3.16 µM) was less than 31.6 nM and the IC50 (second compound 10 µM) was less than 31.6 nM. It also gave a viability, T/C [1] of 107%, a viability, T/C [2] of 99.8% and a viability, T/C [3] of 102%. It also gave a viability, T/C [4] of 82.8%, a viability, T/C [5] of 53.3% and a viability, T/C [6] of 34.5%. It also gave a viability, T/C [7] of 94.5%, a viability, T/C [8] of 83.4% and a viability, T/C [9] of 73.3%. For the same compound, the viability, T/C [10] was 70.1%, the viability, T/C [11] was 35.6% and the viability, T/C [12] was 22.4%. The viability, T/C [13] was 7.43%, the viability, T/C [14] was 5.54% and the viability, T/C [15] was 5.89%. It also gave a viability, T/C [16] of 5.38%, a viability, T/C [17] of 4.22% and a viability, T/C [18] of 5.13%. It also gave a viability, T/C [19] of 0.53%, a viability, T/C [20] of 0.67% and a viability, T/C [21] of 2.64%. For the same compound, the viability, T/C [22] was 0.45%, the viability, T/C [23] was 0.65% and the viability, T/C [24] was 1.19%. It also gave a viability, T/C [25] of 0.65%, a viability, T/C [26] of 0.51% and a viability, T/C [27] of 1.73%. The viability, T/C [28] was 0.46%, the viability, T/C [29] was 0.61% and the viability, T/C [30] was 0.43%. For the same compound, the viability, T/C [31] was 0.36%, the viability, T/C [32] was 0.42% and the viability, T/C [33] was 1.59%. The viability, T/C [34] was 0.41%, the viability, T/C [35] was 1.27% and the viability, T/C [36] was 1.47%.

With `O=C(c1cc(Cc2n[nH]c(=O)c3ccccc23)ccc1F)N1CCN(C(=O)C2CC2)CC1` + CN1CCN(c2cc(C(=O)Nc3cc4cc(-c5cnn(C)c5)ccc4cn3)ccn2)CC1 the IC50 (second compound 0.0316 µM) was greater than 10000 nM, the IC50 (second compound 0.1 µM) was greater than 10000 nM and the IC50 (second compound 0.316 µM) was less than 31.6 nM. For the same compound, the IC50 (second compound 1 µM) was less than 31.6 nM, the IC50 (second compound 3.16 µM) was less than 31.6 nM and the IC50 (second compound 10 µM) was less than 31.6 nM. The viability, T/C [1] was 98.7%, the viability, T/C [2] was 96% and the viability, T/C [3] was 87.4%. The viability, T/C [4] was 97.7%, the viability, T/C [5] was 88.3% and the viability, T/C [6] was 88.2%. For the same compound, the viability, T/C [7] was 82.7%, the viability, T/C [8] was 76% and the viability, T/C [9] was 80.2%. The viability, T/C [10] was 79.4%, the viability, T/C [11] was 83.2% and the viability, T/C [12] was 64.7%. It also gave a viability, T/C [13] of 5.96%, a viability, T/C [14] of 5.32% and a viability, T/C [15] of 5.38%. The viability, T/C [16] was 6.21%, the viability, T/C [17] was 5.51% and the viability, T/C [18] was 6.01%. The viability, T/C [19] was 0.53%, the viability, T/C [20] was 0.75% and the viability, T/C [21] was 1.95%. For the same compound, the viability, T/C [22] was 0.47%, the viability, T/C [23] was 1.71% and the viability, T/C [24] was 1.78%. The viability, T/C [25] was 0.81%, the viability, T/C [26] was 0.43% and the viability, T/C [27] was 0.55%. For the same compound, the viability, T/C [28] was 0.48%, the viability, T/C [29] was 0.71% and the viability, T/C [30] was 4%. The viability, T/C [31] was 0.41%, the viability, T/C [32] was 0.24% and the viability, T/C [33] was 0.82%. The viability, T/C [34] was 0.42%, the viability, T/C [35] was 2.08% and the viability, T/C [36] was 2.09%.
